Results taken from ChEMBL document CHEMBL1139002, “Synthesis and biological evaluation of simplified mycothiazole analogues” (2006).

How the values were obtained:
[1] = tested on: Nippostrongylus brasiliensis; assay: Anthelmintic activity against Nippostrongylus brasiliensis; type: functional
HCT-15 = assay: Cytotoxicity against HCT15 cell line by SRB assay; type: functional, Homo sapiens

| Compound | LC50 [1] | IG50 (HCT-15) |
| --- | --- | --- |
| CCCSc1ccc2[nH]c(NC(=O)OC)nc2c1 [ALBENDAZOLE] | 0.34 µM | – |
| C=CC/C=C\C[C@@H]1CSC(C(C)(C)C(O)C/C=C\CNC(=O)OC)=N1 (stereo partly drawn) | – | 13 µM |
| C=CC/C=C\C[C@@H]1COC(C(C)(C)C(C/C=C\CNC(=O)OC)OC(C)=O)=N1 (stereo partly drawn) | 40 µM | 150 µM |
| C=CC/C=C\C[C@@H]1CSC(C(C)(C)C(C/C=C\CNC(=O)OC)OC(C)=O)=N1 (stereo partly drawn) | > 300 µM | – |
| C=CCC1COC(C(C)(C)C(C/C=C\CNC(=O)OC)OC(C)=O)=N1 (stereo not drawn) | 40 µM | 430 µM |
| CO[C@@]12[C@H](COC(N)=O)C3=C(C(=O)C(C)=C(N)C3=O)N1C[C@@H]1N[C@@H]12 [MITOMYCIN] | – | 1.6 µM |
